In brackets after ≈: the same amount, converted by molar mass. Residues, ends and D or L forms follow the SMILES beside them. *: point of attachment. X1 = CC[C@@]1(OCCS*)C(=O)OCc2c1cc1n(c2=O)Cc2cc3ccccc3nc2-1
Legend:
[1] = Antiproliferative activity against human HCT116-SN6 cells assessed as reduction in cell viability measured after 72 hrs by MTT assay; format: functional, cell-based; conditions: HCT116-SN6, 72 h
HCT-116 [2] = assay: cells; conditions: Homo sapiens, HCT-116, 72 h
Description: Cytotoxicity against human HCT-116 cells assessed as reduction in cell growth incubated for 72 hrs by MTT assay

HepG2 [3] = assay: Cytotoxicity against human HepG2 cells assessed as reduction in cell growth incubated for 72 hrs by MTT assay; format: functional, cell-based; conditions: HepG2, 72 h
[4] = Antiproliferative activity against human HCT116-G7 cells assessed as reduction in cell viability measured after 72 hrs by MTT assay; format: functional, cell-based; conditions: HCT116-G7, 72 h
HeLa [5] = assay: cells; conditions: Homo sapiens, 72 h
Description: Cytotoxicity against human HeLa cells assessed as reduction in cell growth incubated for 72 hrs by MTT assay

A549 [6] = assay: Antiproliferative activity against human A549 cells assessed as reduction in cell viability measured after 72 hrs by MTT assay; format: functional, cell-based; conditions: A549, 72 h
A549 [7] = assay: cells; conditions: Homo sapiens, A549, 72 h
Description: Cytotoxicity against human A549 cells assessed as reduction in cell growth incubated for 72 hrs by MTT assay

HCT-116 [8] = assay: Antiproliferative activity against human HCT-116 cells assessed as reduction in cell viability measured after 72 hrs by MTT assay; format: functional, cell-based; conditions: HCT-116, 72 h
[9] = Ratio AUC in mouse tumor to plasma; format: ADME, cell-free; conditions: tumor and plasma, read-out: Ratio AUC
[10] = Antiproliferative activity against human NLF cells expressing ABCG2 assessed as reduction in cell viability measured for 72 hrs by MTT assay; format: functional, cell-based
[11] = Antiproliferative activity against human SK-N-BE(2)-C cells expressing ABCG2 assessed as reduction in cell viability measured for 72 hrs by MTT assay; format: functional, cell-based
[12] = Drug recovery in bile duct cannulated rat urine measured for 48 hrs
Neutrophil elastase [13] = biological target: T1, Neutrophil elastase (Mus musculus, UniProt Q3UP87); assay: Inhibition of mouse Neutrophil elastase
T1 sequence (Q3UP87 whole entry): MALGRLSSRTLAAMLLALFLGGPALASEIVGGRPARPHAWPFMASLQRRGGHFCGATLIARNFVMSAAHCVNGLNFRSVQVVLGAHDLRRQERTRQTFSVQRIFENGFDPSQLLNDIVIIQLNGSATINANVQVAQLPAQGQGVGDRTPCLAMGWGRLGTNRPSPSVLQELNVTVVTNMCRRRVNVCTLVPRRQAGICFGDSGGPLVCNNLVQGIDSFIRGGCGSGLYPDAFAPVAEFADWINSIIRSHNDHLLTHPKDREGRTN

[14] = Drug recovery in bile duct cannulated rat bile measured for 48 hrs
Neutrophil elastase [15] = biological target: T2, Neutrophil elastase (Homo sapiens, UniProt P08246); assay: Inhibition of human Neutrophil elastase
T2 sequence (P08246 whole entry): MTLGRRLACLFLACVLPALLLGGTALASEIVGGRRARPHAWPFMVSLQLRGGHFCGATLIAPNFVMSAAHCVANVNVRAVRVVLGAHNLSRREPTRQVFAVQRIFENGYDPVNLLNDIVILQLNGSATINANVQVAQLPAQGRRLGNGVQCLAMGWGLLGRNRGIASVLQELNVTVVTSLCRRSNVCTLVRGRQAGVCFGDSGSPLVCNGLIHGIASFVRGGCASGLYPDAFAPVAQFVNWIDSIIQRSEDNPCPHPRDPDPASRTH

HCT-116 [16] = assay: Antitumor activity against human HCT-116 cells xenografted in mouse assessed as tumor growth inhibition at 5 mg/kg administered once for every 2 days for 2 weeks relative to control; format: functional; set-up: scale not given: the % may be the effect or the level left; conditions: time 2 day
[17] = Aqueous solubility of compound at pH6.5; format: physicochemical; conditions: pH 6.5
[18] = Stability in human plasma assessed as half life measured upto 24 hrs by UV/LC-MS analysis; format: ADME, cell-free
A549 [19] = assay: Cytotoxicity against human A549 cells assessed as reduction in cell growth measured after 72 hrs by MTT assay; format: functional, cell-based; conditions: A549, 72 h
L1210 [20] = assay: Cytotoxicity against mouse L1210 cells assessed as reduction in cell growth measured after 72 hrs by MTT assay; format: functional, cell-based; conditions: L1210, 72 h
HCT-116 [21] = assay: Cytotoxicity against human HCT-116 cells assessed as reduction in cell growth measured after 72 hrs by MTT assay; format: functional, cell-based; conditions: HCT-116, 72 h
HeLa [22] = assay: Cytotoxicity against human HeLa cells assessed as reduction in cell growth measured after 72 hrs by MTT assay; format: functional, cell-based
[23] = Volume of distribution at steady state in mouse at 5 mg/kg, iv; format: ADME, organism-based; conditions: in vivo, read-out: Vdss
HCT-116 [24] = assay: Cytotoxicity against human HCT-116 cells assessed as reduction in cell viability measured after 48 hrs by MTT assay; format: functional, cell-based; conditions: HCT-116, 48 h
A549 [25] = assay: Growth inhibition of human A549 cells incubated for 72 hrs by MTT assay; format: functional
HepG2 [26] = assay: Cytotoxicity against human HepG2 cells assessed as cell growth inhibition measured after 48 hrs by MTT assay; format: functional, cell-based; conditions: HepG2, 48 h
[27] = Aqueous solubility of compound at pH 7.4; format: physicochemical
[28] = Volume of distribution at steady state in mouse at 8 mg/kg, iv; format: ADME, organism-based; conditions: in vivo, read-out: Vdss
[29] = Clearance in mouse at 8 mg/kg, iv; format: ADME, organism-based; conditions: in vivo
HeLa [30] = assay: Cytotoxicity against human HeLa cells assessed as reduction in cell viability measured for 48 hrs by MTT assay; format: functional, cell-based
K562 [31] = assay: Growth inhibition of human K562 cells incubated for 72 hrs by MTT assay; format: functional
[32] = Toxicity in iv dosed mouse assessed as lethal dose; format: organism-based; conditions: in vivo
HCT-116 [33] = assay: Growth inhibition of human HCT-116 cells incubated for 72 hrs by MTT assay; format: functional
[34] = Toxicity in ip dosed mouse assessed as lethal dose; format: organism-based; conditions: in vivo
A549 [35] = assay: cells; conditions: Homo sapiens, A549, 48 h
Description: Cytotoxicity against human A549 cells assessed as reduction in cell viability measured after 48 hrs by MTT assay

[36] = Primary half life in mouse at 8 mg/kg, iv; format: ADME, organism-based; conditions: in vivo, read-out: alphat1/2
[37] = Toxicity in po dosed mouse assessed as lethal dose; format: organism-based; conditions: in vivo
[38] = AUC in mouse at 8 mg/kg, iv; format: ADME, organism-based; conditions: in vivo
L1210 [39] = assay: Cytotoxicity against mouse L1210 cells assessed as reduction in cell viability measured for 24 hrs by MTT assay; format: functional, cell-based; conditions: L1210, 24 h
K562 [40] = assay: Cytotoxicity against human K562 cells assessed as reduction in cell growth incubated for 48 hrs by MTT assay; format: functional, cell-based; conditions: K562, 48 h
[41] = Terminal half life in mouse at 8 mg/kg, iv; format: ADME, organism-based; conditions: in vivo, read-out: beta t1/2
MCF7 = assay: Growth inhibition of human MCF7 cells incubated for 72 hrs by MTT assay; format: functional
L1210 [42] = assay: Cytotoxicity against mouse L1210 cells assessed as reduction in cell viability measured for 24 hrs by SRB assay; format: functional, cell-based; conditions: L1210, 24 h
HeLa [43] = assay: cells; conditions: Homo sapiens, 24 h
Description: Cytotoxicity against human HeLa cells assessed as reduction in cell viability measured for 24 hrs by SRB assay

HepG2 [44] = assay: Antiproliferative activity against human HepG2 cells assessed as reduction in cell viability measured for 48 hrs by CCK-8 assay; format: functional, cell-based; conditions: HepG2, 48 h
HeLa [45] = assay: Antiproliferative activity against human HeLa cells assessed as reduction in cell viability measured for 48 hrs by CCK-8 assay; format: functional, cell-based
K562 [46] = assay: Antiproliferative activity against human K562 cells assessed as reduction in cell viability measured for 48 hrs by CCK-8 assay; format: functional, cell-based; conditions: K562, 48 h
L1210 [47] = assay: Antiproliferative activity against mouse L1210 cells assessed as inhibition of cell growth incubated for 24 hrs by MTT assay; format: functional, cell-based; conditions: L1210, 24 h

Compound: CC[C@@]1(O)C(=O)OCc2c1cc1n(c2=O)Cc2cc3cc4c(cc3nc2-1)OCO4
- EC50 [1]: 2.28 nM
- IC50 (HCT-116 [2]): 50 ng/mL (≈ 0.127 µM)
- IC50 (HepG2 [3]): 104 ng/mL (≈ 0.265 µM)
- EC50 [4]: 4.14 nM
- IC50 (HeLa [5]): 40 ng/mL (≈ 0.102 µM)
- EC50 (A549 [6]): 0.86 nM
- IC50 (A549 [7]): 43 ng/mL (≈ 0.11 µM)
- EC50 (HCT-116 [8]): 0.36 nM

Compound: CC[C@@]1(O)C(=O)OCc2c1cc1n(c2=O)Cc2cc3ccc(O)cc3nc2-1
- Kp [9]: 6.1

Compound: CCc1c2c(nc3ccccc13)-c1cc3c(c(=O)n1C2)COC(=O)[C@]3(O)CC
- IC50 [10]: 80 nM
- IC50 [11]: 7 nM

Compound: CCCNC(=O)Nc1cccc(S(=O)(=O)Nc2cccc([C@@H](CC(=O)[O-])NC(=O)Nc3ccc(NC(=O)NCCOCCOCCOCCC(=O)N[C@@H](CC(=O)[O-])C(=O)N4CCC[C@H]4C(=O)N[C@H](C(=O)O[C@]4(CC)C(=O)OCc5c4cc4n(c5=O)Cc5c-4nc4ccccc4c5CC)C(C)C)cc3)c2)c1.[Na+].[Na+]
- dose excreted at 48 h [12]: 2.4%
- IC50 (Neutrophil elastase [13]): 8900 nM
- dose excreted at 48 h [14]: 108%
- IC50 (Neutrophil elastase [15]): 9600 nM

Compound: CC[C@H](C)[C@H](NC(=O)[C@H](CCCCN)NC(=O)[C@H](CCCCN)NC(=O)[C@H](C)NC(=O)[C@H](CC(C)C)NC(=O)[C@H](C)NC(=O)[C@H](C)NC(=O)[C@H](CC(C)C)NC(=O)[C@@H](NC(=O)[C@H](CCCCN)NC(=O)[C@H](CC(C)C)NC(=O)[C@H](CC(N)=O)NC(=O)[C@H](CCCCN)NC(=O)[C@H](CCCCN)NC(=O)[C@H](CC(C)C)NC(=O)[C@H](CC(C)C)NC(=O)[C@@H](N)CCCCN)C(C)C)C(=O)N[C@@H](CC(C)C)C(=O)NCC(=O)NCC(=O)N[C@@H](CSSCCO[C@]1(CC)C(=O)OCc2c1cc1n(c2=O)Cc2cc3ccccc3nc2-1)C(N)=O (H-KLLKKNLKVLAALAKKILGGC(X1)-NH2)
- Activity (HCT-116 [16]): 98.2%
- solubility [17]: 1.83 µM (≈ 4.81 µg/mL)
- half-life [18]: 2.5 h

Compound: CCc1c2c(nc3ccc(O)cc13)-c1cc3c(c(=O)n1C2)COC(=O)[C@]3(O)CC [7-ETHYL-10-HYDROXYCAMPTOTHECIN]
- IC50 (A549 [19]): 1.62 nM
- IC50 (L1210 [20]): 8.9 nM
- IC50 (HCT-116 [21]): 0.55 nM
- IC50 (HeLa [22]): 22 nM

Compound: CC[C@@]1(O)C(=O)OCc2c1cc1n(c2=O)Cc2c-1nc1ccc(O)cc1c2[Si](C)(C)C(C)(C)C [AR-67]
- Vd [23]: 0.73 L/kg

Compound: CC[C@@]1(O)C(=O)OCc2c1cc1n(c2=O)Cc2cc3ccccc3nc2-1 [CAMPTOTHECIN]
- IC50 (HCT-116 [24]): 2.01 nM
- GI50 (A549 [25]): 5.69 ng/mL (≈ 0.0163 µM)
- Activity (HCT-116 [16]): 37.5%
- IC50 (HepG2 [26]): 7.25 nM
- EC50 [1]: 7.63 nM
- IC50 (HCT-116 [2]): 2.01 ng/mL (≈ 0.00577 µM)
- solubility [27]: 1.83 µM (≈ 0.637 µg/mL)
- IC50 (HepG2 [3]): 7.25 ng/mL (≈ 0.0208 µM)
- Vd [28]: 10.8 L/kg
- clearance [29]: 38 mL/min/kg
- IC50 (HeLa [30]): 8.9 nM
- EC50 [4]: 20.3 nM
- GI50 (K562 [31]): 54.3 ng/mL (≈ 0.156 µM)
- LD50 [32]: 38 mg/kg
- GI50 (HCT-116 [33]): 3.86 ng/mL (≈ 0.0111 µM)
- LD50 [34]: 38 mg/kg
- IC50 (A549 [35]): 0.32 nM
- half-life [36]: 0.35 h
- LD50 [37]: 50 mg/kg
- IC50 (HeLa [5]): 8.9 ng/mL (≈ 0.0255 µM)
- EC50 (A549 [6]): 4.17 nM
- AUC [38]: 212 µg/mL
- IC50 (L1210 [39]): 14 nM
- IC50 (A549 [7]): 0.32 ng/mL (≈ 0.000919 µM)
- EC50 (HCT-116 [8]): 3.15 nM
- IC50 (K562 [40]): 2 nM
- half-life [41]: 4.6 h
- GI50 (MCF7): 1.98 ng/mL (≈ 0.00568 µM)

Compound: CC[C@@]1(O)C(=O)OCc2c1cc1n(c2=O)Cc2c-1nc1cc(F)c(C)c3c1c2[C@@H](N)CC3.CS(=O)(=O)O.O.O [EXATECAN MESYLATE]
- GI50 (A549 [25]): 0.914 ng/mL
- GI50 (K562 [31]): 10.4 ng/mL
- GI50 (HCT-116 [33]): 0.347 ng/mL
- GI50 (MCF7): 0.322 ng/mL

Compound: CCc1c2c(nc3ccc(OC(=O)N4CCC(N5CCCCC5)CC4)cc13)-c1cc3c(c(=O)n1C2)COC(=O)[C@]3(O)CC [IRINOTECAN]
- IC50 (L1210 [42]): 1200 nM
- IC50 (HeLa [43]): 122 nM

Compound: CC[C@@]1(O)C(=O)OCc2c1cc1n(c2=O)Cc2cc3c(CN(C)C)c(O)ccc3nc2-1 [TOPOTECAN]
- IC50 (HepG2 [44]): 60 nM
- IC50 (HeLa [45]): 376 nM
- IC50 (K562 [46]): 500 nM
- IC50 (L1210 [47]): 56 nM
